Test results: patent US20100076003A1, “5-OXAZOLIDIN-2-ONE SUBSTITUTED 1,3,8-TRIAZASPIRO[4.5]DECAN-4-ONE DERIVATIVES USEFUL AS ORL-1 RECEPTOR MODULATORS” (priority 2008, published 2010)

Assays:
[1] = target: Delta (δ) opioid receptor (Homo sapiens, UniProt P41143); assay: Filtration binding assay, delta opioid receptor, DPDPE-3H ligand
[2] = target: Kappa (κ) opioid receptor (Homo sapiens, UniProt P41145); assay: Filtration binding assay, kappa opioid receptor, U-69,593-3H ligand
Mu (μ) opioid receptor = Mu (μ) opioid receptor (Homo sapiens, UniProt P35372); assay: Filtration binding assay, mu opioid receptor, DAMGO-3H ligand
Mu (μ) opioid receptor, sequence (P35372 whole entry): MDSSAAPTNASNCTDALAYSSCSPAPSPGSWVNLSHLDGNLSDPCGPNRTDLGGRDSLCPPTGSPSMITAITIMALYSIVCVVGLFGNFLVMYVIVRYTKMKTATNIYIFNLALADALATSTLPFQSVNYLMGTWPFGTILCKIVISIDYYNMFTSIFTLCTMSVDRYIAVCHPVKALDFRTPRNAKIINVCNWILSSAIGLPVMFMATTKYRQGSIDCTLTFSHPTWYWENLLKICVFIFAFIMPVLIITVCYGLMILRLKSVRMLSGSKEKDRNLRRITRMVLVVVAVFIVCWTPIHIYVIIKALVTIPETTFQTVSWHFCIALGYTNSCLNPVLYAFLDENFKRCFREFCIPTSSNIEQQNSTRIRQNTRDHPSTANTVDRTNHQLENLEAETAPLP

Kappa (κ) opioid receptor, sequence (P41145 whole entry): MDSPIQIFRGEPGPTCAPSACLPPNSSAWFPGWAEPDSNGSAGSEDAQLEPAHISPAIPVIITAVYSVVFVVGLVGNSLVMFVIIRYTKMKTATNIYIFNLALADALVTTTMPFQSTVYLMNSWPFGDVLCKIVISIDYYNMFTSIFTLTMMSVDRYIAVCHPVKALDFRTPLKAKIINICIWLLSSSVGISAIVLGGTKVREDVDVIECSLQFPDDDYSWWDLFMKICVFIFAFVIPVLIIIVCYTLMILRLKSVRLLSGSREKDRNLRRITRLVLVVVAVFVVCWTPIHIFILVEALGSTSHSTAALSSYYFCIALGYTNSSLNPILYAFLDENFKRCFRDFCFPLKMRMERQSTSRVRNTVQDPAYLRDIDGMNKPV
Delta (δ) opioid receptor, sequence (P41143 whole entry): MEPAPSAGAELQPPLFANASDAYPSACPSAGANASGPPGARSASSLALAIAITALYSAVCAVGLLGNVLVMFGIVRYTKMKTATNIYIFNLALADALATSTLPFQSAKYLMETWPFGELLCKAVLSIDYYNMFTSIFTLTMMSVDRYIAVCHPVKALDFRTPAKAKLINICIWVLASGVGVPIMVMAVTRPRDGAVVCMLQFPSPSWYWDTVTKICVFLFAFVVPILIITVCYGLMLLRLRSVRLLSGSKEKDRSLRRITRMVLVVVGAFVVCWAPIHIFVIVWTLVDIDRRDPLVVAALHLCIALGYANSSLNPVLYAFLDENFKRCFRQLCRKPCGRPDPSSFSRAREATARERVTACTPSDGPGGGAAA

Compound	Ki [1] [µM]	Ki [2] [nM]	Ki (Mu (μ) opioid receptor) [nM]
Cc1cccc2cccc(CN3CCC4(CC3)C(=O)N(C[C@H]3CNC(=O)O3)CN4c3ccc(F)cc3)c12 [Compound 2, 1-(4-Fluoro-phenyl)-8-(8-methyl-naphthalen-1-ylmethyl)-3-(R)-(2-oxo-oxazolidin-5-ylmethyl)-1,3,8-triaza-spiro[4.5]decan-4-one]	> 5	640	740
Cc1cccc2cccc(CN3CCC4(CC3)C(=O)N(C[C@H]3CN(C)C(=O)O3)CN4c3ccc(F)cc3)c12 [Compound 4, 1-(4-Fluoro-phenyl)-8-(8-methyl-naphthalen-1-ylmethyl)-3-(S)-(3-methyl-2-oxo-oxazolidin-5-ylmethyl)-1,3,8-triaza-spiro[4.5]decan-4-one]	> 5	120	360
COCCN1C[C@@H](CN2CN(c3ccc(F)cc3)C3(CCN(Cc4cccc5cccc(C)c45)CC3)C2=O)OC1=O [Compound 5, 1-(4-Fluoro-phenyl)-3-(R)-[3-(2-methoxy-ethyl)-2-oxo-oxazolidin-5-ylmethyl]-8-(8-methyl-naphthalen-1-ylmethyl)-1,3,8-triaza-spiro[4.5]decan-4-one]	> 5	580	180
